Measurements as given in patent publication US20240360194A1, “New Peptides as Potent and Selective GIP Receptor Agonists” (Sanofi, priority 2021, published 2024).
One block for each compound: values may come before it. Numbered stars: 1 amine (or outer) side, 2 acyl side, 3 side chain; on linkers, the order of the positions; unused ones are H or OH. Square brackets hold non-standard residues; d marks the D form. Side chains are listed from the residue outwards. Peptide text beside a SMILES is read from it. * marks the point of attachment. C18 diacid = O=C(O)CCCCCCCCCCCCCCCCC(=O)*; γGlu = O=C(O)[C@H](CCC(=O)[*:2])N[*:1]; αMeV = CC(C)[C@](C)(N)C(=O)O; AEEA = NCCOCCOCC(=O)O; Aib = CC(C)(N)C(=O)O

Experiments:
[1] = target: T1, human GIP receptor (hGIPR) (Homo sapiens, UniProt P48546); assay: In vitro cellular cAMP assay for GIP receptor efficacy (HEK-293 cell line over-expressing receptor); type: cell-based; conditions: EC50 hGIPR 0.1% BSA, HEK-293, 0.1% BSA
T1 sequence (P48546 22-466): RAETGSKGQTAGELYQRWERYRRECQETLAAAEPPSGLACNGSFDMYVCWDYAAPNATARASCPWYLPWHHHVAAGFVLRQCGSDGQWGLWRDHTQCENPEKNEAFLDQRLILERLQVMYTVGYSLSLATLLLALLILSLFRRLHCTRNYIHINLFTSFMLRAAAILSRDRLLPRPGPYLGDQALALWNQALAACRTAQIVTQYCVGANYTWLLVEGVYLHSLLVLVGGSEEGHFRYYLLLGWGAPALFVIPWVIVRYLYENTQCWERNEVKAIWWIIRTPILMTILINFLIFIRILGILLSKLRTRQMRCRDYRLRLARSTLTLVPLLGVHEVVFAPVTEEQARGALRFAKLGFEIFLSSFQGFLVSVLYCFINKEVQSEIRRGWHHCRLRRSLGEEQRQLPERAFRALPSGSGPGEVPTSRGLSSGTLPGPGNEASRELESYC

[2] = target: T2, human GIP receptor (Homo sapiens, UniProt P48546); assay: In vitro cellular cAMP assay for GIP receptor efficacy (human adipocytes); type: cell-based
T2 construct: human adipocytes endogenously expressing the human GIP receptor; host or cells: human preadipocytes (Lonza) differentiated to adipocytes
T2 sequence (P48546 22-466): T1 sequence (P48546 22-466)
Summary of the method: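 cAMP is read by HTRF (665/620 nm ratio, 1 h after reagents in lysis buffer) following 30 min compound exposure at room temperature. Cells are human preadipocyte-derived adipocytes, differentiated 6 days with insulin, dexamethasone, IBMX (200 μM), PPARγ agonist and L-thyroxine, seeded 5000 per well.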

[3] = target: T1, human GIP receptor (hGIPR); assay: Binding assay, displacement of [125I]GIP from HEK-293 membranes over-expressing GIPR (SPA); conditions: [125I]GIP displacement
Summary of the method: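 Membranes from HEK-293 cells over-expressing human GIPR or GLP-1R, isolated by homogenising, sonicating and ultracentrifuging at 100000×g into HEPES/EDTA/NaCl buffer with protease inhibitors, were used for binding.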

[4] = Solubility assessment (UHPLC-UV of supernatant, target 10 mg/ml); type: physicochemical; conditions: pH 7.4, Soluble amount
Summary of the method: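 Peptides at 10 mg/ml (purity-corrected) in 100 mM phosphate pH 7.4, optionally with 2.7 mg/ml m-cresol; gentle agitation 1 h, then 5° C. overnight (24 h). Supernatant after 15 min centrifugation at 2500 RCF quantified by UHPLC-UV, with sequence-based extinction coefficients.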

[5] = target: human GLP-1 receptor (hGLP-1R) (Homo sapiens, UniProt P43220); assay: In vitro cellular cAMP assay for GLP-1 receptor efficacy (HEK-293 cell line over-expressing receptor); type: cell-based; conditions: HEK-293, 0.1% BSA
Sequence of human GLP-1 receptor (hGLP-1R) (P43220 24-463): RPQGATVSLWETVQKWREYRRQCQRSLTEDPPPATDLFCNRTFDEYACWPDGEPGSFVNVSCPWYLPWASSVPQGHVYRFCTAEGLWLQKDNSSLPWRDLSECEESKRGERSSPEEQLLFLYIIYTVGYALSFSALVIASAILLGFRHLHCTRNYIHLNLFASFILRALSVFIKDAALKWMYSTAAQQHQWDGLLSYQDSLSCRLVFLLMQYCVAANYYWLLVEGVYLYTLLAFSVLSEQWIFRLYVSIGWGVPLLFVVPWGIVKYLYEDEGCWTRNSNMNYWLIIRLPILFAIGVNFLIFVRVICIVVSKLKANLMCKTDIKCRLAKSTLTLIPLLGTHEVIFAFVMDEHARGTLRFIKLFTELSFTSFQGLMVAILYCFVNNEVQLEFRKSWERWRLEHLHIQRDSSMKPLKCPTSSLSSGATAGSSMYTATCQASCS

EC50 [1]: 0.0757 nM
Compound: CC[C@H](C)[C@H](NC(=O)[C@H](Cc1ccccc1)NC(=O)[C@H](CCC(=O)O)NC(=O)[C@H](CCC(=O)O)NC(=O)[C@H](CCC(N)=O)NC(=O)[C@H](Cc1c[nH]cn1)NC(=O)[C@@H](NC(=O)[C@H](CCCNC(=N)N)NC(=O)[C@H](CC(=O)O)NC(=O)[C@H](CCCCNC(=O)COCCOCCNC(=O)COCCOCCNC(=O)CC[C@H](NC(=O)CCCCCCCCCCCCCCCCC(=O)O)C(=O)O)NC(=O)C(C)(C)NC(=O)[C@@H](NC(=O)[C@H](CO)NC(=O)[C@H](CC(C)C)NC(=O)[C@H](CC(=O)O)NC(=O)[C@H](CO)NC(=O)[C@@H](NC(=O)[C@H](Cc1ccccc1)NC(=O)[C@@H](NC(=O)CNC(=O)[C@H](CCC(=O)O)NC(=O)C(C)(C)NC(=O)[C@@H](N)Cc1ccc(O)cc1)[C@@H](C)O)[C@@H](C)CC)[C@@H](C)CC)[C@@H](C)CC)C(=O)N[C@@H](CCC(=O)O)C(=O)N[C@@H](Cc1c[nH]c2ccccc12)C(=O)N[C@@H](CC(C)C)C(=O)N[C@@H](CC(C)C)C(=O)N[C@@H](C)C(=O)N[C@@H](CCC(N)=O)C(=O)N[C@@H](CCC(=O)O)C(=O)NCC(=O)O [SEQ ID NO: 14, H2N-Y-Aib-E-G-T-F-I-S-D-L-S-I-Aib-K[{AEEA}2-gGlu-C18OH]-D-R-I-H-Q-E-E-F-I-E-W-L-L-A-Q-E-G-OH] (H-Y[Aib]EGTFISDLSI[Aib]K([AEEA-AEEA-γGlu-C18 diacid])DRIHQEEFIEWLLAQEG-OH)

EC50 [1]: 0.0179 nM
Compound: CC[C@H](C)[C@H](NC(=O)[C@H](CCCNC(=N)N)NC(=O)[C@H](CC(=O)O)NC(=O)[C@H](CCCCNC(=O)COCCOCCNC(=O)COCCOCCNC(=O)CC[C@H](NC(=O)CCCCCCCCCCCCCCCCC(=O)O)C(=O)O)NC(=O)C(C)(C)NC(=O)[C@@H](NC(=O)[C@H](CO)NC(=O)[C@H](CC(C)C)NC(=O)[C@H](CC(=O)O)NC(=O)[C@H](CO)NC(=O)[C@@H](NC(=O)[C@@](C)(CC)NC(=O)[C@@H](NC(=O)CNC(=O)[C@H](CCC(=O)O)NC(=O)C(C)(C)NC(=O)[C@@H](N)Cc1ccc(O)cc1)[C@@H](C)O)[C@@H](C)CC)[C@@H](C)CC)C(=O)N[C@@H](Cc1c[nH]cn1)C(=O)N[C@@H](CCC(N)=O)C(=O)NC(C)(C)C(=O)N[C@@H](CCC(=O)O)C(=O)N[C@@](C)(Cc1ccccc1)C(=O)N[C@H](C(=O)N[C@@H](CCC(=O)O)C(=O)N[C@@H](Cc1c[nH]c2ccccc12)C(=O)N[C@@H](CC(C)C)C(=O)N[C@@H](CC(C)C)C(=O)N[C@@H](C)C(=O)N[C@@H](CCC(N)=O)C(=O)N[C@@H](CCCNC(=N)N)C(=O)NCC(N)=O)[C@@H](C)CC [SEQ ID NO: 18, H2N-Y-Aib-E-G-T-Iva-I-S-D-L-S-I-Aib-K[{AEEA}2-gGlu-C18OH]-D-R-I-H-Q-Aib-E-Mph-I-E-W-L-L-A-Q-R-G-NH2]

Compound: CC[C@H](C)[C@H](NC(=O)[C@H](Cc1ccccc1)NC(=O)[C@H](CCC(=O)O)NC(=O)[C@H](CCC(=O)O)NC(=O)[C@H](CCC(N)=O)NC(=O)[C@H](Cc1c[nH]cn1)NC(=O)[C@@H](NC(=O)[C@H](CCCNC(=N)N)NC(=O)[C@H](CC(=O)O)NC(=O)[C@H](CCCCNC(=O)COCCOCCNC(=O)COCCOCCNC(=O)CC[C@H](NC(=O)CCCCCCCCCCCCCCCCC(=O)O)C(=O)O)NC(=O)C(C)(C)NC(=O)[C@@H](NC(=O)[C@H](CO)NC(=O)[C@H](CC(C)C)NC(=O)[C@H](CC(=O)O)NC(=O)[C@H](CO)NC(=O)[C@@H](NC(=O)[C@@](C)(NC(=O)[C@@H](NC(=O)CNC(=O)[C@H](CCC(=O)O)NC(=O)C(C)(C)NC(=O)[C@@H](N)Cc1ccc(O)cc1)[C@@H](C)O)C(C)C)[C@@H](C)CC)[C@@H](C)CC)[C@@H](C)CC)C(=O)N[C@@H](CCC(=O)O)C(=O)N[C@@H](Cc1c[nH]c2ccccc12)C(=O)N[C@@H](CC(C)C)C(=O)N[C@@H](CC(C)C)C(=O)N[C@@H](C)C(=O)N[C@@H](CCC(N)=O)C(=O)NCC(=O)N1CCC[C@H]1C(=O)N[C@@H](CO)C(=O)N[C@@H](CO)C(=O)NCC(=O)N[C@@H](C)C(=O)N1CCC[C@H]1C(=O)N1CCC[C@H]1C(=O)N1CCC[C@H]1C(=O)N[C@@H](CO)C(N)=O [SEQ ID NO: 26, H2N-Y-Aib-E-G-T-Mva-I-S-D-L-S-I-Aib-K[{AEEA}2-gGlu-C18OH]-DRIHQEEFIEWLLAQGPSSGAPPPS-NH2] (H-Y[Aib]EGT[αMeV]ISDLSI[Aib]K([AEEA-AEEA-γGlu-C18 diacid])DRIHQEEFIEWLLAQGPSSGAPPPS-NH2)
EC50 [1]: 0.0602 nM

Compound: CC[C@H](C)[C@H](NC(=O)[C@H](Cc1ccccc1)NC(=O)[C@H](CCC(=O)O)NC(=O)C(C)(C)NC(=O)[C@H](CCC(N)=O)NC(=O)[C@H](CCCCNC(=O)COCCOCCNC(=O)COCCOCCNC(=O)CC[C@H](NC(=O)CCCCCCCCCCCCCCCCC(=O)O)C(=O)O)NC(=O)[C@H](CCC(N)=O)NC(=O)[C@H](CCC(=O)O)NC(=O)[C@H](CCC(=O)O)NC(=O)[C@H](CC(C)C)NC(=O)C(C)(C)NC(=O)[C@@H](NC(=O)[C@H](CO)NC(=O)[C@H](CC(C)C)NC(=O)[C@H](CC(=O)O)NC(=O)[C@H](CO)NC(=O)[C@@H](NC(=O)[C@H](Cc1ccccc1)NC(=O)[C@@H](NC(=O)CNC(=O)[C@H](CCC(=O)O)NC(=O)C(C)(C)NC(=O)[C@@H](N)Cc1ccc(O)cc1)[C@@H](C)O)[C@@H](C)CC)[C@@H](C)CC)C(=O)N[C@@H](CCC(=O)O)C(=O)N[C@@H](Cc1c[nH]c2ccccc12)C(=O)N[C@@H](CC(C)C)C(=O)N[C@@H](CC(C)C)C(=O)N[C@@H](C)C(=O)N[C@@H](CCC(N)=O)C(=O)NCC(=O)N1CCC[C@H]1C(=O)N[C@@H](CO)C(=O)N[C@@H](CO)C(=O)NCC(=O)N[C@@H](C)C(=O)N1CCC[C@H]1C(=O)N1CCC[C@H]1C(=O)N1CCC[C@H]1C(=O)N[C@@H](CO)C(N)=O [SEQ ID NO: 36, H2N-Y-Aib-E-G-T-F-I-S-D-L-S-I-Aib-L-E-E-Q-K[{AEEA}2-gGlu-C18OH]-Q-Aib-E-F-I-E-W-L-L-A-Q-G-P-S-S-G-A-P-P-P-S-NH2] (H-Y[Aib]EGTFISDLSI[Aib]LEEQK([AEEA-AEEA-γGlu-C18 diacid])Q[Aib]EFIEWLLAQGPSSGAPPPS-NH2)
EC50 ([2]; read-out: hGIPR EC50): 0.3 nM | Emax ([2]; read-out: hGIPR Emax): 104% | IC50 [3]: 0.2 nM | solubility at 24 h [4]: > 10.7 mg/mL | EC50 [5]: > 10 nM
